This is an account of results in ChEMBL document CHEMBL1122438, “2-Phenylpyrazolo[1,5-a]pyrimidin-7-ones. A new class of nonsteroidal antiinflammatory drugs devoid of ulcerogenic activity” (J Med Chem, 1983).

In data set [1] the test system is Mus musculus. The experiment in a line: Percent reduction of edema in mice 3h after oral administration of 20 mg/kg in carrageenan model. It is filed as functional.
For data set [2], the system named is Mus musculus. The experiment in a line: Analgesic activity evaluated by measuring % analgesic effect, after oral administration of 300 mg/kg in acetic acid writhing test. The format is functional. On the technique in general: Writhing tests count abdominal constrictions after an irritant is injected.
Data set [3] deals with Mus musculus. As to the kind of experiment: Analgesic activity evaluated by measuring % analgesic effect, after oral administration of 500 mg/kg in acetic acid writhing test. It is filed as functional.
Data set [4] concerns Mus musculus. The experiment in a line: Acute toxicity was evaluated as number of mice (tested=7) died after 72nd hour when 170 mg/kg is administered intraperitoneally. The format is organism-based. More on the design: dose 170 mg/kg, route intraperitoneal. The note with it: in vivo, ip.
The test system of data set [5] is Mus musculus. The experiment in a line: Acute toxicity was evaluated as number of mice (tested=7) died after 72nd hour when 225 mg/kg is administered intraperitoneally. It is filed as organism-based. As to conditions: in vivo, ip. The arrangement: dose 225 mg/kg, route intraperitoneal.
The subject of data set [6] is Mus musculus. The experiment in a line: Acute toxicity was evaluated as number of mice (tested=7) died after 72nd hour when 300 mg/kg is administered intraperitoneally. It is filed as organism-based. More on the design: dose 300 mg/kg, route intraperitoneal. The note with it: in vivo, ip.
In data set [7] the test system is Mus musculus. As to the kind of experiment: Acute toxicity was evaluated as number of mice (tested=7) died after 72nd hour when 350 mg/kg is administered intraperitoneally. It is filed as organism-based. The arrangement: dose 350 mg/kg, route intraperitoneal. The note with it: in vivo, ip.
A short description of data set [8]: Toxic activity is expressed as LD50 values. The format is toxicity, organism-based. As to conditions: mouse, in vivo.
The nature of data set [9]: Therapeutic index was expressed as LD50/ED50 carragreenin model. As to conditions: mouse; read-out: TI.
For data set [10], the species on record is Rattus norvegicus. As to the kind of experiment: Analgesic activity in acetic acid writhing test, activity is expressed as ED50 values. It is filed as functional.
For data set [11], the species on record is Rattus norvegicus. The experiment in a line: Antiinflammatory activity in carrageenan model, activity is expressed as ED50 values. The format is functional.
In data set [12] the test system is Rattus norvegicus. The experiment in a line: Antiinflammatory activity evaluated by measuring % reduction of edema, 3h after oral administration of 25 mg/kg in carrageenan model. It is filed as functional.
Data set [13] concerns Rattus norvegicus. As to the kind of experiment: Antiinflammatory activity evaluated by measuring % reduction of edema, 3h after oral administration of 50 mg/kg in carrageenan model. It is filed as functional.
Data set [14] relates to Rattus norvegicus. As to the kind of experiment: Antiinflammatory activity evaluated by measuring % reduction of edema, 3h after oral administration of 10 mg/kg in carrageenan model. It is filed as functional.
For data set [15], the system named is Rattus norvegicus. As to the kind of experiment: Percent reduction of edema in rat on 23rd day after oral administration of 20 mg/kg in antiarthritis assay. It is filed as functional.
For data set [16], the species on record is Rattus norvegicus. The experiment in a line: Median ulcerogenic dose was determined. It is filed as functional.
Data set [17] has as its system Rattus norvegicus. As to the kind of experiment: Ulcer index at 100 mg/kg concentration. It is filed as functional.
In data set [18] the test system is Rattus norvegicus. The experiment in a line: Ulcer index at 50 mg/kg concentration. The format is functional.
In data set [19] the test system is Rattus norvegicus. As to the kind of experiment: Ulcer index at 200 mg/kg concentration. It is filed as functional.

As usually defined, the LD50 is the dose expected to kill half of the subjects tested. The low end stands for a more toxic substance, the high end for a less toxic substance. Broadly, the ED50 is the dose at which the effect has come halfway, by size or by number of responders.

Take `CCCCC1C(=O)N(c2ccccc2)N(c2ccccc2)C1=O` [PHENYLBUTAZONE]: the Reduction is given as 52.9% in the data set with Mus musculus [1]; 52.9% in the data set on Rattus norvegicus [12]; 62.9% in the data set on Rattus norvegicus [13]; 48.7% with Rattus norvegicus [14]; 20.7% in the data set on Rattus norvegicus [15]. Further, the Analgesic effect is listed as 57.7% with Mus musculus [2] and 73% in the data set with Mus musculus [3]. The Acute toxicity with Mus musculus [4] is recorded as 0; in the data set on Mus musculus [5], 2; in the data set with Mus musculus [6], 4; in the data set on Mus musculus [7], 7. In data set [8], the LD50 is 238 mg/kg. Besides, in data set [9], the selectivity ratio was 18.2. For the same compound, the ED50 in the data set filed under Rattus norvegicus [10] worked out at 274 mg/kg; in the data set filed under Rattus norvegicus [11], 13.1 mg/kg. Also, the UD50 in the data set listed under Rattus norvegicus [16] amounted to 72.4 mg/kg. Further, the UI with Rattus norvegicus [17] was found to be 2.55; with Rattus norvegicus [18] it was 1.35; with Rattus norvegicus [19], 3.2.
